Test [1] has as its system dsDNA (dual-labeled) (DNA, duplex) CAATCGGATCGAATTCGATCCGATTG
The test is described as follows: FRET melting. The following applies: K+ 60 mM; 60 mM K-cacodylate (table note: Tris-HCl/KCl), pH 7.4; 1 µM compound.

Test [2] concerns BCL2 (DNA, G4) GGGCGCGGGAGGAATTGGGCGGG
Put plainly: fluorescence titration of ligand, Hill fit. The following applies: K+; 100 mM Tris-KCl, pH 7.4, 25 °C; excitation 300 nm.

The test system is the same in test [3]. The test is described as follows: ITC. The following applies: K+ 100 mM; 100 mM Tris, 100 mM KCl, pH 7.4; 5 µM DNA, 50 µM ligand.
The test system of test [4] is KRAS (DNA, G4) AGGGCGGTGTGGGAAGAGGGAAGAGGGGGAGG
Put plainly: ITC. The settings on record: K+ 100 mM; 100 mM Tris, 100 mM KCl, pH 7.4; 5 µM DNA, 50 µM ligand.

Test [5] deals with c-KIT2 (DNA, G4) GGGCGGGCGCGAGGGAGGGG
Put plainly: ITC. The settings on record: K+ 100 mM; 100 mM Tris, 100 mM KCl, pH 7.4; main text prints ~2.6 µM.

Test [6] relates to c-MYC27 (DNA, G4) TGAGGGTGGGTAGGGTGGGTAA
Put plainly: ITC. The following applies: K+ 100 mM; 100 mM Tris, 100 mM KCl, pH 7.4; 5 µM DNA, 50 µM ligand.

The test system of test [7] is KRAS (DNA, G4) AGGGCGGTGTGGGAAGAGGGAAGAGGGGGAGG
The test is described as follows: fluorescence titration of ligand, Hill fit. The settings on record: K+; 100 mM Tris-KCl, pH 7.4, 25 °C; excitation 300 nm.

Test [8] deals with c-KIT2 (DNA, G4) GGGCGGGCGCGAGGGAGGGG
The test is described as follows: fluorescence titration of ligand, Hill fit. The following applies: K+; 100 mM Tris-KCl, pH 7.4, 25 °C; excitation 300 nm.

The test system of test [9] is VEGF (DNA, G4) CGGGGCGGGCCGGGGGCGGGGT
Put plainly: ITC. The settings on record: K+ 100 mM; 100 mM Tris, 100 mM KCl, pH 7.4; 5 µM DNA, 50 µM ligand.

Test [10] concerns c-MYC27 (DNA, G4) TGAGGGTGGGTAGGGTGGGTAA
The test is described as follows: fluorescence titration of ligand, Hill fit. The settings on record: K+; 100 mM Tris-KCl, pH 7.4, 25 °C; excitation 300 nm.

Test [11] concerns dsDNA (DNA, duplex) CAATCGGATCGAATTCGATCCGATTG
The test is described as follows: fluorescence titration of ligand, Hill fit. The following applies: K+; 100 mM Tris-KCl, pH 7.4, 25 °C; main text: no substantial spectral change with dsDNA, ITC negligible.

Test [12] concerns c-KIT1 (DNA, G4) GGGAGGGCGCTGGGAGGGAGGG
The test is described as follows: ITC. The settings on record: K+ 100 mM; 100 mM Tris, 100 mM KCl, pH 7.4; main text prints ~3.3 µM.

Test [13] shares this test system. Put plainly: fluorescence titration of ligand, Hill fit. The settings on record: K+; 100 mM Tris-KCl, pH 7.4, 25 °C; excitation 300 nm.

For the molecule `C[n+]1cc(NC(=O)c2ccc3ccc4ccc(C(=O)Nc5cc6ccccc6[n+](C)c5)nc4c3n2)cc2ccccc21`, the ΔTm in test [1] came to 0.01 °C.

For the molecule `Nc1nc(C(=O)Nc2ccc(-n3cc(CNC(=O)c4csc(NC(=O)c5csc(N)n5)n4)nn3)cc2)cs1`, the Kd in [2] turned out to be 1800 nM.

Take `Nc1nc(C(=O)Nc2nc(C(=O)NCc3cn(-c4ccc(NC(=O)[C@@H]5CCCN5)cc4)nn3)cs2)cs1`: the KD in test [3] was 3000 ± 100 nM; in test [4], 530 ± 250 nM; in [5], 3700 ± 300 nM; in test [6], 2280 ± 740 nM; in [2] it was 1500 nM; in [8], 1500 nM. Further, the KD amounted to 17700 ± 4000 nM in test [9]; 2500 nM in test [10]; 2200 nM in test [11]; 2200 ± 1000 nM in [12]; 2000 nM in test [13]. Moreover, in test [7], the Kd came to 800 nM. Besides, the ΔTm in test [1] worked out at 0.07 °C.

In general, ΔTm refers to the shift of the melting midpoint relative to a reference. A word on the Kd: it is the free concentration of one partner at which half of the binding sites on the other are occupied at equilibrium, for simple one-to-one binding. Read a low Kd as higher affinity. A word on the KD: it is a measure of binding affinity in units of concentration.
